Test results taken from patent US20180249707A1, “METHOD OF CONTROLLING ALGAE IN A BODY OF WATER” (priority 2013, published 2018).

Tested on: M. aeruginosa UTEX 2385
Test: MIC 96-well microtiter plate assay in BG-11, 10 days
Assay type: cell-based, Microcystis aeruginosa
Conditions: for In vivo chlorophyll a of M. aeruginosa: 10 days, initial 0.1 ug/L
Experimental: MICs for the samples against M. aeruginosa were determined in a standard 96-well microtiter plate assay in BG-11 with a starting inoculum of ˜1×10^5 cells/mL. Algae plates were incubated for 10 days. MIC concentrations were determined visually, in vivo chlorophyll a was determined fluorometrically, and cell density was determined via direct counting. Samples were tested in duplicate.

## CCCCCCCCCCCCN.Cl [1-dodecylammonium chloride]
0.031 active ppm
  In vivo chlorophyll a of M. aeruginosa: 7.20 µg/L
0.063 active ppm
  In vivo chlorophyll a of M. aeruginosa: 4.65 µg/L
0.125 active ppm
  In vivo chlorophyll a of M. aeruginosa: 2.05 µg/L
0.25 active ppm
  In vivo chlorophyll a of M. aeruginosa: 0.15 µg/L
0.5 active ppm
  In vivo chlorophyll a of M. aeruginosa: 0.00 µg/L
Microcystis aeruginosa, UTEX2385, 240 h, determined visually, 10 days incubation, read-out: MIC values per individual sample, M. aeruginosa
  MIC: 0.25 µg/mL
